Values quoted from earlier work, collected in patent EP0268928A2, “Safened pesticidal dispersion resin compositions for controlling soil borne pests and process for the preparation thereof” (priority 1986, dated 1988).

System: rats
Details: technical grade

CCOP(=S)(OCC)SCSCC [phorate, 0,0-diethyl-S-(ethylthiomethyl)phosphorodithioate]
acute oral LD50 value in rats: 1.6-3.7 mg technical/kg
